In brackets after ≈: the same amount, converted by molar mass. Read-outs that look alike come from different tables or passages of the source. Blank lines part the entries; values can stand above or below the compound they belong to.
Experiments:
[1] = test system: M. mycetomatis genome strain MM55; test: CLSI M38-A2 based in vitro susceptibility screening (XTT or resazurin), growth at fixed concentration; type: cell-based, Madurella mycetomatis; conditions: Madurella mycetomatis
M. mycetomatis MM55 = test: IC50 determination, 2-fold dilution series 16 to 0.03125 μM; type: cell-based, Madurella mycetomatis
[2] = test system: ten different M. mycetomatis isolates; test: MIC / MIC50 determination (XTT) in ten M. mycetomatis isolates; type: cell-based, Madurella mycetomatis; conditions: for MIC50 / MIC: Madurella mycetomatis
[3] = test system: M. mycetomatis isolate MM55; test: M. mycetomatis grain infection model in G. mellonella larvae, survival; type: in vivo, Galleria mellonella; design: In vivo efficacy, Larvae survival %: concentration or dose not given beside the values; conditions: for Effect on larvae survival Day 4 (words): day four
[4] = test system: ten different M. mycetomatis isolates; design: method as in PMID 24945848, PMID 22964246, PMID 31904836; conditions: asterisk: determined in previous works ref 19-21; cited from earlier work
[5] = mean, read-out: Percentage survival at 25um, 25 uM mean
[6] = replicate A, read-out: Percentage survival at 25um, 25 um A
[7] = replicate B, read-out: Percentage survival at 25um, 25 uM B
[8] = replicate C, read-out: Percentage survival at 25um, 25 uM C
[9] = 100 uM, mean, read-out: Percentage survival at 100um, 100 uM mean
[10] = 100 uM, replicate (first column), read-out: Percentage survival at 100um, 100 uM A
[11] = 100 uM, replicate (second column), read-out: Percentage survival at 100um, 100 uM A
[12] = 100 uM, replicate (third column), read-out: Percentage survival at 100um, 100 uM A
[13] = Madurella mycetomatis, MM55, Table 2, M. mycetomatis MM55, read-out: IC50
[14] = Madurella mycetomatis, MM55, read-out: IC90 mean
[15] = Madurella mycetomatis, MM55, replicate 1, read-out: IC50 1
[16] = Madurella mycetomatis, MM55, replicate 1, read-out: IC90 1
[17] = Madurella mycetomatis, MM55, replicate 2, read-out: IC50 2
[18] = Madurella mycetomatis, MM55, replicate 2, read-out: IC90 2
[19] = Madurella mycetomatis, MM55, replicate 3, read-out: IC50 3
[20] = Madurella mycetomatis, MM55, replicate 3, read-out: IC90 3
[21] = median MIC over ten M. mycetomatis isolates, no asterisk, read-out: MIC50
[22] = over the isolates tested, read-out: MIC50 mean
[23] = isolate CBS247.48, read-out: MIC CBS247.48
[24] = isolate MM14, read-out: MIC MM14
[25] = isolate MM45, read-out: MIC MM45
[26] = isolate MM55, read-out: MIC MM55
[27] = isolate ParijsAl1, read-out: MIC ParijsAl1
[28] = isolate Peru72012, read-out: MIC Peru72012
[29] = 20 μM per larvae, vs infected control
[30] = Madurella mycetomatis, MM55, mean, read-out: IC50 mean
[31] = G. mellonella larvae infected with M. mycetomatis

IC50 (M. mycetomatis MM55; [13]): 720 nM | IC90 (M. mycetomatis MM55; [14]): 1290 nM | IC50 (M. mycetomatis MM55; [15]): 580 nM | IC90 (M. mycetomatis MM55; [16]): 1300 nM | IC50 (M. mycetomatis MM55; [17]): 780 nM | IC90 (M. mycetomatis MM55; [18]): 1210 nM | IC50 (M. mycetomatis MM55; [19]): 800 nM | IC90 (M. mycetomatis MM55; [20]): 1350 nM | MIC50 [2, 21]: 0.5 µM (≈ 0.165 µg/mL) | MIC50 [2, 22]: 0.5 µM (≈ 0.165 µg/mL) | MIC [2, 23]: 2 µM (≈ 0.658 µg/mL) | MIC [2, 24]: 0.125 µM (≈ 0.0412 µg/mL) | MIC [2, 25]: 4 µM (≈ 1.32 µg/mL) | MIC [2, 26]: 0.5 µM (≈ 0.165 µg/mL) | MIC ([2]; isolate P1, read-out: MIC P1): 1 µM (≈ 0.329 µg/mL) | MIC [2, 27]: 0.125 µM (≈ 0.0412 µg/mL) | MIC [2, 28]: 0.5 µM (≈ 0.165 µg/mL) | MIC ([2]; isolate So1, read-out: MIC So1): 0.125 µM (≈ 0.0412 µg/mL) | MIC ([2]; isolate i1, read-out: MIC i1): 0.0625 µM (≈ 0.0206 µg/mL) | MIC ([2]; isolate i11, read-out: MIC i11): 1 µM (≈ 0.329 µg/mL)
Structure (SMILES): Clc1cc(Cl)c2c(c1)CCc1ccccc1C2n1ccnc1 (stereo not drawn) [MMV1634492, Eberconazole, reference compound]
activity at 25 µM [1, 5]: -1.12% | activity at 25 µM [1, 6]: -3.02% | activity at 25 µM [1, 7]: -4.98% | activity at 25 µM [1, 8]: 4.64% | activity at 100 µM [1, 9]: 3.3% | activity at 100 µM [1, 10]: -3.84% | activity at 100 µM [1, 11]: 6.56% | activity at 100 µM [1, 12]: 7.19% | Drug static or cidal (M. mycetomatis MM55): Cidal | Effect on larvae survival Day 4 (words) [3, 29]: prolonged larvae survival | In vivo efficacy, Enhanced survival compared to control? ([3]; in vivo): no | In vivo efficacy, Larvae survival % ([3]; in vivo): 13.3%

IC50 (M. mycetomatis MM55; [13]): 40 nM | IC50 (M. mycetomatis MM55; [30]): 630 nM | IC90 (M. mycetomatis MM55; [14]): 1080 nM | IC50 (M. mycetomatis MM55; [15]): 350 nM | IC90 (M. mycetomatis MM55; [16]): 680 nM | IC50 (M. mycetomatis MM55; [17]): 750 nM | IC90 (M. mycetomatis MM55; [18]): 1300 nM | IC50 (M. mycetomatis MM55; [19]): 790 nM | IC90 (M. mycetomatis MM55; [20]): 1260 nM
Structure (SMILES): CNCC(=O)OCc1cccnc1N(C)C(=O)OC(C)[n+]1cnn(C[C@](O)(c2cc(F)ccc2F)[C@@H](C)c2nc(-c3ccc(C#N)cc3)cs2)c1 (stereo partly drawn) [MMV1634494, Isavuconazonium, reference compound]
activity at 25 µM [1, 5]: -2.78% | activity at 25 µM [1, 6]: -3.3% | activity at 25 µM [1, 7]: -6.46% | activity at 25 µM [1, 8]: 1.41% | activity at 100 µM [1, 9]: 7.96% | activity at 100 µM [1, 10]: 2.09% | activity at 100 µM [1, 11]: 14.1% | activity at 100 µM [1, 12]: 7.75% | Drug static or cidal (M. mycetomatis MM55): Cidal | MIC50 [4]: 0.04 µM | MIC range [4]: <0.02 to 0.17 µM

IC50 (M. mycetomatis MM55; [13]): < 20 nM | IC50 (M. mycetomatis MM55; Madurella mycetomatis, MM55, mean of replicates, read-out: IC50 mean): < 98 nM | IC90 (M. mycetomatis MM55; Madurella mycetomatis, MM55, mean of replicates, read-out: IC90 mean): < 98 nM | IC50 (M. mycetomatis MM55; Madurella mycetomatis, MM55, replicate 1, read-out: IC50 1 um): < 98 nM | IC90 (M. mycetomatis MM55; Madurella mycetomatis, MM55, replicate 1, read-out: IC90 1 um): < 98 nM | IC50 (M. mycetomatis MM55; Madurella mycetomatis, MM55, replicate 2, read-out: IC50 2 um): < 98 nM | IC90 (M. mycetomatis MM55; Madurella mycetomatis, MM55, replicate 2, read-out: IC90 2 um): < 98 nM | IC50 (M. mycetomatis MM55; Madurella mycetomatis, MM55, replicate 3, read-out: IC50 3 um): < 98 nM | IC90 (M. mycetomatis MM55; Madurella mycetomatis, MM55, replicate 3, read-out: IC90 3 um): < 98 nM | IC50 (M. mycetomatis MM55; Table 2, M. mycetomatis MM55, read-out: IC50): < 30 nM | MIC50 [2, 21]: < 0.03 µM | MIC50 ([2]; over the tested M. mycetomatis isolates, read-out: MIC50 mean): < 0.0312 µM | MIC [2, 23]: < 0.0312 µM | MIC [2, 24]: < 0.0312 µM | MIC [2, 25]: < 0.0312 µM | MIC [2, 26]: < 0.0312 µM | MIC ([2]; isolate P1, read-out: MIC P1): < 0.0312 µM | MIC [2, 27]: < 0.0312 µM | MIC [2, 28]: < 0.0312 µM | MIC ([2]; isolate So1, read-out: MIC So1): < 0.0312 µM | MIC ([2]; isolate i1, read-out: MIC i1): < 0.0312 µM | MIC ([2]; isolate i11, read-out: MIC i11): < 0.0312 µM | MIC50 (μM) ([2]; median MIC over ten M. mycetomatis isolates, no asterisk): <0.03 (≦0.03) μM
Structure (SMILES): N#C/C(=C1/SC[C@@H](c2ccc(Cl)cc2Cl)S1)n1ccnc1 [MMV1782224, Luliconazole, reference compound]
activity at 25 µM ([1]; mean of three, M. mycetomatis MM55, read-out: Percentage survival at 25um, 25 uM mean): 1.75% | activity at 25 µM ([1]; replicate A, M. mycetomatis MM55, read-out: Percentage survival at 25um, 25 um A): -0.617% | activity at 25 µM ([1]; replicate B, M. mycetomatis MM55, read-out: Percentage survival at 25um, 25 uM B): 1.37% | activity at 25 µM ([1]; replicate C, M. mycetomatis MM55, read-out: Percentage survival at 25um, 25 uM C): 4.51% | activity at 100 µM ([1]; 100 uM, mean of three, M. mycetomatis MM55, read-out: Percentage survival at 100um, 100 uM mean): 6.85% | activity at 100 µM ([1]; 100 uM, replicate 1, M. mycetomatis MM55, read-out: Percentage survival at 100um, 100 uM A (first replicate column)): -0.151% | Percent fungal survival at 100 µM ([1]; 100 uM, replicate 2, M. mycetomatis MM55, read-out: Percentage survival at 100um, 100 uM A (second replicate column)): 8.79% | activity at 100 µM ([1]; 100 uM, replicate 3, M. mycetomatis MM55, read-out: Percentage survival at 100um, 100 uM A (third replicate column)): 11.9% | Drug static or cidal (M. mycetomatis MM55; M. mycetomatis): Cidal | Effect on larvae survival Day 4 (words) [3, 29]: prolonged larvae survival | In vivo efficacy, Enhanced survival compared to control? [3, 31]: no | In vivo efficacy, Larvae survival % [3, 31]: 11.1%

IC50 (M. mycetomatis MM55; [13]): 3220 nM | IC50 (M. mycetomatis MM55; [30]): 3220 nM | IC90 (M. mycetomatis MM55; [14]): > 25000 nM | IC50 (M. mycetomatis MM55; [15]): 2880 nM | IC90 (M. mycetomatis MM55; [16]): > 25000 nM | IC50 (M. mycetomatis MM55; [17]): 3520 nM | IC90 (M. mycetomatis MM55; [18]): 6200 nM | IC50 (M. mycetomatis MM55; [19]): 3250 nM | IC90 (M. mycetomatis MM55; [20]): > 25000 nM | MIC50 ([2]; Table 3 and Fig 5, benzimidazole carbamates, M. mycetomatis, read-out: MIC50): 4 µM (≈ 0.821 µg/mL) | MIC50 [2, 21]: 4 µM (≈ 0.821 µg/mL) | MIC50 [2, 22]: 4 µM (≈ 0.821 µg/mL) | MIC [2, 23]: 4 µM (≈ 0.821 µg/mL) | MIC [2, 24]: 4 µM (≈ 0.821 µg/mL) | MIC [2, 25]: 4 µM (≈ 0.821 µg/mL) | MIC [2, 26]: 4 µM (≈ 0.821 µg/mL) | MIC ([2]; isolate P1, read-out: MIC P1): 4 µM (≈ 0.821 µg/mL) | MIC [2, 27]: 4 µM (≈ 0.821 µg/mL) | MIC [2, 28]: 4 µM (≈ 0.821 µg/mL) | MIC ([2]; isolate So1, read-out: MIC So1): 4 µM (≈ 0.821 µg/mL) | MIC ([2]; isolate i1, read-out: MIC i1): 4 µM (≈ 0.821 µg/mL) | MIC ([2]; isolate i11, read-out: MIC i11): 4 µM (≈ 0.821 µg/mL)
Structure (SMILES): COC(=O)Nc1nc2c(C)cccc2[nH]1 [MMV1782387]
activity at 25 µM [1, 5]: 4.41% | activity at 25 µM [1, 6]: 0.37% | activity at 25 µM [1, 7]: 7.58% | activity at 25 µM [1, 8]: 5.29% | activity at 100 µM [1, 9]: 15.6% | activity at 100 µM [1, 10]: 4.59% | activity at 100 µM [1, 11]: 6.95% | activity at 100 µM [1, 12]: 35.2% | Drug static or cidal (M. mycetomatis MM55): Static | Larvae survival rate on day ten ([3]; 20 μM per larvae at 4, 28, 52 h after infection, day ten): 28.9% | Effect on larvae survival Day 4 (words) [3, 29]: Increase survival | Effect on larvae survival Day 10 (words) ([3]; 20 μM per larvae, vs infected control, day ten): able to increase larvae survival | In vivo efficacy, Enhanced survival compared to control? ([3]; in vivo): yes ** | In vivo efficacy, Larvae survival % ([3]; in vivo): 28.9%
